Measurements as given in US9855239B2, “Methods for the treatment and prevention of age-related retinal dysfunction” (University of Washington, priority 2008, dated 2018).
Entries after “also recorded” stand apart in the source; their conditions may differ.

What was measured:
[1] = Retinoid kinetics in the eyes during dark adaptation, long-term treatment; assay type: in vivo, mouse; details: 10 months of age, N1 vs C1, 60 min after the bleach (p<0.01)
Description: (§1) Recovery of the ERG response (dark adaptation) following bleach was measured by monitoring the amplitude of a-waves after retinal exposure to intense constant illumination (500 cd·m^−2, ˜90% bleached rhodopsin) for 3 min. […] Retinoid kinetics in the eyes of each group were quantitatively evaluated during 60 min of dark adaptation after 3 min of bleaching at four subsequent time points of dark adaptation (0, 10, 30, and 60 min). […] Neither 9-cis-retinal nor 9-cis-retinyl esters were found in eyes from untreated groups (data not shown).
Two weeks after the last gavage with either, 9-cis-R-Ac, all-trans-R-Ac or vehicle, groups of 48 hr dark-adapted mice were analyzed for recovery of dark adaptation after light exposure, purified rhodopsin/opsin and retinoids in the eye and retinal morphology (FIG. 1C; Methods). Mice were exposed to light of intensity 500 cd·m^−2 that bleached ˜90% of rhodopsin, anesthetized and monitored by ERG for one hr to evaluate recovery of dark adaptation. Rhodopsin was purified and rhodopsin/opsin ratios was determined. Retinoid analyses were performed on dissected eyes removed at 0, 10, 30, and 60 min after exposure to the same amount of light. Mice used to evaluate retinal morphology were not exposed to photobleaching prior to analysis. […]

[2] = Retinoid levels in eyes by HPLC, single dose; assay type: in vivo, mouse
Description: (§2) Forty eight hr dark-adapted, 10-month-old mice were gavaged with a single dose (˜80 mg/kg body weight) of 9-cis-R-Ac or control vehicle and exposed to strong illumination for 20 min (500 cd·m^−2 that bleached ˜90% rhodopsin). Next, mice were dark-adapted for 16 hr after which various analyses were performed (FIG. 1A). […] To investigate whether 9-cis-retinal was utilized to form isorhodopsin and to assess how much unliganded opsin was present in the mouse eyes, rhodopsin, isorhodopsin and opsin were purified by immunoaffinity chromatography from treated and control groups of mice. […] After bleaching, 9-cis-retinal is bound to opsin even in the presence of a functional retinoid cycle that produces 11-cis-retinal to regenerate rhodopsin. Eyes from non-bleached or bleached and dark-adapted untreated mice contained a small amount of free opsin.
9-cis-R-Ac was prepared as previously described (Batten, M. L., et al. PLoS medicine 2, e333 (2005); Batten, M. L., et al. J Biol Chem 279, 10422-10432 (2004)). A dose of ˜80 mg/kg body weight of 9-cis-R-Ac in 150 μl vegetable oil was administered via gavage to each treated animal. Prior to single dose experiments (FIG. 1A, Table 1), 10-month-old mice were dark-adapted for more than 48 hr, gavaged with 9-cis-R-Ac or vehicle control solution 1 hr before bleaching, exposed to light for 20 min at 500 cd·m^−2 and dark-adapted for 16 hr before analysis.
All experimental procedures related to extraction, derivatization and separation of retinoids were carried out under dim red light provided by a Kodak No. 1 safelight filter (transmittance>560 nm) as described previously (Van Hooser, J. P., et al. Proceedings of the National Academy of Sciences of the United States of America 97, 8623-8628 (2000); Van Hooser, J. P., et al. J Biol Chem, 277, 19173-19182 (2002); Maeda, A., et al. J Biol Chem 280, 18822-18832 (2005); Van Hooser, J. P., Garwin, G. G. & Saari, J. C. Methods Enzymol 316, 565-575 (2000)). Eluted fractions of purified rhodopsin from 6 mouse eyes were combined (total 3.0 ml) and mixed with an equal volume of 100% methanol. The mixture was vortexed and incubated on ice for 15 min. Retinoids were extracted twice with an equal volume of 100% hexane (6 ml total). The combined extracts were dried under argon and retinoids were separated by normal phase HPLC (Beckman, Ultrasphere-Si, 5 μm, 4.6×250 mm) with 10% ethyl acetate and 90% hexane at a flow rate of 1.4 ml/min and detected at 325 nm by an HPI 100 HPLC with a diode array detector and HP Chemstation A.03.03 software. A2E was analyzed as previously described (Maeda, A., et al. J Biol Chem, 280, 18822-18832 (2005)).

C57BL/6 female mice [3] = assay: Single-flash ERG after single dose treatment, bleach and dark adaptation; assay type: in vivo, mouse; details: single dose ~80 mg/kg gavage, 10-month-old mice, 20 min bleach at 500 cd·m^−2, 16 hr dark adaptation; vs control (a-waves P<0.01)
Description: as §2
9-cis-R-Ac was prepared as previously described (Batten, M. L., et al. PLoS medicine 2, e333 (2005); Batten, M. L., et al. J Biol Chem 279, 10422-10432 (2004)). A dose of ˜80 mg/kg body weight of 9-cis-R-Ac in 150 μl vegetable oil was administered via gavage to each treated animal. […]
(§3) ERGs of anesthetized mice were recorded as previously reported.

[4] = Husbandry: activity, coat and skin appearance, body weight, tolerability
Description: Animals were evaluated weekly for activity and changes in coat and skin appearance.
For the long-term study (FIGS. 1B and 1C, Table 1), mice were obtained at 3 months of age and raised until 4 months of age before the experiments were initiated. Mice then were gavaged with 9-cis-R-Ac or vehicle solution once a month for different durations. Six groups of mice were studied (FIG. 1B). The first 3 groups (C0 C1 and C2, total n=35 for each group) were treated as controls and tested at 4, 10 and 14 months of age. The other 3 groups (N1, N2 and N3, n=35) were gavaged with 9-cis-R-Ac. Group N1 was gavaged for 6 months and tested at 10 months of age. Group N2 was gavaged with 9-cis-R-Ac for 10 months and tested at 14 months of age. Group N3, was gavaged with vehicle until 10 months of age and then received 9-cis-R-Ac monthly until testing at 14 months of age.

C57BL/6 female mice [5] = assay: Recovery of ERG response (dark adaptation) after bleach, long-term treatment; assay type: in vivo, mouse; details: 500 cd·m^−2 for 3 min, 60 min dark adaptation
Description: as §1
Six groups of mice were studied (FIG. 1B).
Two weeks after the last gavage with either, 9-cis-R-Ac, all-trans-R-Ac or vehicle, groups of 48 hr dark-adapted mice were analyzed for recovery of dark adaptation after light exposure, purified rhodopsin/opsin and retinoids in the eye and retinal morphology (FIG. 1C; Methods). Mice were exposed to light of intensity 500 cd·m^−2 that bleached ˜90% of rhodopsin, anesthetized and monitored by ERG for one hr to evaluate recovery of dark adaptation. Rhodopsin was purified and rhodopsin/opsin ratios was determined. Retinoid analyses were performed on dissected eyes removed at 0, 10, 30, and 60 min after exposure to the same amount of light. Mice used to evaluate retinal morphology were not exposed to photobleaching prior to analysis.
as §3

CC(=O)OC/C=C(C)/C=C/C=C(C)\C=C\C1=C(C)CCCC1(C)C [9-cis-R-Ac, 9-cis-retinyl acetate]
regeneration level of 11-cis-retinal in eyes [1]: significantly higher
9-cis-retinal in eyes ([2]; exposed to intense light, treated mice): Significant amounts of 9-cis-retinal were detected; also recorded: detected only in the eyes of 9-cis-R-Ac treated mice
9-cis-retinyl esters in eyes (RPE) ([2]; treated and exposed to intense light): significant amount of 9-cis-retinyl esters; also recorded: easily detectable; also recorded: detected only in the eyes of 9-cis-R-Ac treated mice
amounts of 11-cis-retinal and all-trans-retinyl esters in eyes ([2]; treated vs control): not significantly affected; also recorded: similar
9-cis-retinal in eyes ([2]; unbleached treated mouse eyes): Only trace amounts
functional a- and b-wave amplitudes, single-flash ERG (C57BL/6 female mice [3]): slightly increased
activity and changes in coat and skin appearance ([4]; evaluated weekly during the experimental period): No changes
body weights ([4]; pre-treatment, 10 months and 14 months, control (C1-2) vs treated (N1-3)): no significant differences
recovery of ERG a-wave response (dark adaptation) after bleach (C57BL/6 female mice [5]; 10 months of age, N1 vs C1): significantly faster; also recorded: significantly higher; also recorded: restored the rate of recovery to that seen in 4-month-old mice
recovery of ERG a-wave response (dark adaptation) after bleach (C57BL/6 female mice [5]; 14 months of age, treated (9-cis-R-Ac: N2 and N3) vs C2): significantly faster; also recorded: significantly higher recovery rate
